Where two headings read alike, the source gives them in different places.
Legend:
Type in all cases: cell-based
AKT1 E17K = molecular target: T1, AKT1 E17K (Homo sapiens, UniProt P31749, E17K); assay: Live cell AKT1 E17K target engagement by NanoBRET competitive probe displacement; conditions: HEK293 cells transfected with kinase-NanoLuciferase fusion, 2 h at 37° C.
T1 construct: expressed in transfected cells; host or cells: HEK293
Method in brief: (§1)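 NanoLuc-kinase fusions, HEK293, transfected overnight; compound serial dilution + ATP-competitive fluorescent tracer at ~EC50; 2 h, 37 °C. Read 460/600 nm with extracellular NanoLuc inhibitor; BRET = E600/E460; IC50 by Hill fit.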

AKT2 = molecular target: T2, AKT2 (Homo sapiens, UniProt P31751); assay: Live cell AKT2 target engagement by NanoBRET competitive probe displacement; conditions: HEK293 cells transfected with kinase-NanoLuciferase fusion, 2 h at 37° C.
T2 construct: expressed in transfected cells; host or cells: HEK293
T2 sequence (P31751 whole entry, the tested form may be a part): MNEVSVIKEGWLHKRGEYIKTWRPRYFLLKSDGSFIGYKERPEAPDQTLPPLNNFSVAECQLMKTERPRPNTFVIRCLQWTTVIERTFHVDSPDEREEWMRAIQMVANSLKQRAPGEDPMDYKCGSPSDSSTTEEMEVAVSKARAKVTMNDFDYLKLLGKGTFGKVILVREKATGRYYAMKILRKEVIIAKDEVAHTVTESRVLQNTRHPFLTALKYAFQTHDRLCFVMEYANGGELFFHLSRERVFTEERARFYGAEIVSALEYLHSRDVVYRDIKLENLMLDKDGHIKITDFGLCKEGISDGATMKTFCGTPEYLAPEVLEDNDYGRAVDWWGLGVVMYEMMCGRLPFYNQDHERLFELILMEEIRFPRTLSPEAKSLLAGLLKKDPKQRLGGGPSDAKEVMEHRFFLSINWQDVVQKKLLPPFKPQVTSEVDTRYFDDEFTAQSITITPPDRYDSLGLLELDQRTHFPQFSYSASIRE
Method in brief: as §1

AKT1 WT = molecular target: T3, AKT1 WT (Homo sapiens, UniProt P31749); assay: Live cell AKT1 WT target engagement by NanoBRET competitive probe displacement; conditions: HEK293 cells transfected with kinase-NanoLuciferase fusion, 2 h at 37° C.
T3 construct: expressed in transfected cells; host or cells: HEK293
T3 sequence (P31749 whole entry, the tested form may be a part): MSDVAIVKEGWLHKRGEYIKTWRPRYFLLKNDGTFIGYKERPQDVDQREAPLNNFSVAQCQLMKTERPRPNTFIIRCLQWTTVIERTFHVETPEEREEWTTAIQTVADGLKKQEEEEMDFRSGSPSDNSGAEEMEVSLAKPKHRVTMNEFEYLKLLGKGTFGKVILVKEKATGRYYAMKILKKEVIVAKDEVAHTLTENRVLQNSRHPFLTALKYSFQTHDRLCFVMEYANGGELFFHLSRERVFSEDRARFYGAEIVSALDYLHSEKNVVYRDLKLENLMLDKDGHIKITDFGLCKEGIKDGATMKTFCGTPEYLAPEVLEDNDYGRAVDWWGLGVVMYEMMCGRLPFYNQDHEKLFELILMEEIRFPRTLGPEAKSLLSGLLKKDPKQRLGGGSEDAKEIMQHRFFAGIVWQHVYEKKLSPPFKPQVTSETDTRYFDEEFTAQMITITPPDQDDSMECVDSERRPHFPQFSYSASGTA
Method in brief: as §1

[1] = tested on: LAPC4 prostate cancer cells; assay: Antiproliferative effects in LAPC4 cells (CellTiter Glo); conditions: LAPC4 cells (AKT1 E17K allele), read-out: LAPC4 proliferation IC50
Method in brief: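 Luminescent ATP read-out (CellTiter Glo) after 72 h compound exposure; 1,000 cells/well in IMDM + 12% FBS + 1% P/S. IC50 by Hill equation fit of luminescence vs. log(inhibitor).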

T1 sequence (P31749 whole entry E17K, the tested form may be a part): as the sequence (P31749 whole entry, the tested form may be a part) above, with E17K counted along it

SMILES: C=CC(=O)N1CCC(N[C@@H]2c3ccc(-n4c(-c5cccnc5N)nc5ccc(-n6cccn6)nc54)cc3CC2F)C[C@H]1C (single isomer, unassigned) [Example 146, 1-((2R,4*)-4-(((1R,2*)-5-(2-(2-aminopyridin-3-yl)-5-(1H-pyrazol-1-yl)-3H-imidazo[4,5-b]pyridin-3-yl)-2-fluoro-2,3-dihydro-1H-inden-1-yl)amino)-2-methylpiperidin-1-yl)prop-2-en-1-one]
- IC50 (AKT1 E17K): 0.0784 µM
- IC50 (AKT2): 1.58 µM
- IC50 (AKT1 WT): 0.0229 µM
- IC50 ([1]; 72 h): 0.448 µM

SMILES: C=CC(=O)N1CCN(NC2CCc3cc(-n4c(-c5cccnc5N)nc5ccc(-n6cccn6)nc54)ccc32)CC1 (single isomer, unassigned) [Example 147, (*)-1-(4-((5-(2-(2-aminopyridin-3-yl)-5-(1H-pyrazol-1-yl)-3H-imidazo[4,5-b]pyridin-3-yl)-2,3-dihydro-1H-inden-1-yl)amino)piperazin-1-yl)prop-2-en-1-one]
- IC50 (AKT1 E17K): 0.151 µM
- IC50 (AKT2): 0.903 µM
- IC50 (AKT1 WT): 0.032 µM
- IC50 ([1]; 72 h): 0.398 µM

SMILES: C=CC(=O)N1CCN(NC2CCc3cc(-n4c(-c5cccnc5N)nc5ccc(-n6cccn6)nc54)ccc32)CC1 (single isomer, unassigned) [Example 148, (*)-1-(4-((5-(2-(2-aminopyridin-3-yl)-5-(1H-pyrazol-1-yl)-3H-imidazo[4,5-b]pyridin-3-yl)-2,3-dihydro-1H-inden-1-yl)amino)piperazin-1-yl)prop-2-en-1-one]
- IC50 (AKT1 E17K): 0.038 µM
- IC50 (AKT2): 0.061 µM
- IC50 (AKT1 WT): 0.0125 µM
- IC50 ([1]; 72 h): 0.0933 µM

SMILES: C=CC(=O)N1CCC(NC2c3ccc(-n4c(-c5cccnc5N)nc5ccc(-n6cccn6)nc54)cc3CC2O)CC1 (single isomer, unassigned) [Example 150, 1-(4-(((1*,2*)-5-(2-(2-aminopyridin-3-yl)-5-(1H-pyrazol-1-yl)-3H-imidazo[4,5-b]pyridin-3-yl)-2-hydroxy-2,3-dihydro-1H-inden-1-yl)amino)piperidin-1-yl)prop-2-en-1-one]
- IC50 (AKT1 E17K): 0.213 µM
- IC50 (AKT2): 0.781 µM
- IC50 (AKT1 WT): 0.0311 µM
- IC50 ([1]; 72 h): 0.478 µM

SMILES: C=CC(=O)N1CCC(NC2c3ccc(-n4c(-c5cccnc5N)nc5ccc(-n6cccn6)nc54)cc3CC2O)CC1 (single isomer, unassigned) [Example 151, 1-(4-(((1*,2*)-5-(2-(2-aminopyridin-3-yl)-5-(1H-pyrazol-1-yl)-3H-imidazo[4,5-b]pyridin-3-yl)-2-hydroxy-2,3-dihydro-1H-inden-1-yl)amino)piperidin-1-yl)prop-2-en-1-one]
- IC50 (AKT1 E17K): > 1 µM
- IC50 (AKT2): > 10 µM
- IC50 (AKT1 WT): > 1 µM
- IC50 ([1]; 72 h): > 10 µM

SMILES: C=CC(=O)N1CCC(N[C@H]2CCc3cc(-n4c(-c5cccnc5N)nc5ccc(-n6cccn6)nc54)ccc32)C(C#N)C1 (single isomer, unassigned) [Example 155, (3*,4*)-1-acryloyl-4-(((S)-5-(2-(2-aminopyridin-3-yl)-5-(1H-pyrazol-1-yl)-3H-imidazo[4,5-b]pyridin-3-yl)-2,3-dihydro-1H-inden-1-yl)amino)piperidine-3-carbonitrile]
- IC50 (AKT1 E17K): > 1 µM
- IC50 (AKT2): 1.23 µM
- IC50 (AKT1 WT): 0.0836 µM
- IC50 ([1]; 72 h): 0.49 µM

SMILES: C=CC(=O)N1CCC(N[C@H]2CCc3cc(-n4c(-c5cccnc5N)nc5ccc(-n6cccn6)nc54)ccc32)C(C#N)C1 (single isomer, unassigned) [Example 156, (3*,4*)-1-acryloyl-4-(((S)-5-(2-(2-aminopyridin-3-yl)-5-(1H-pyrazol-1-yl)-3H-imidazo[4,5-b]pyridin-3-yl)-2,3-dihydro-1H-inden-1-yl)amino)piperidine-3-carbonitrile]
- IC50 (AKT1 E17K): 0.0113 µM
- IC50 (AKT2): 0.0647 µM
- IC50 (AKT1 WT): 0.0098 µM
- IC50 ([1]; 72 h): 0.0302 µM

SMILES: C=CC(=O)N1CCC(N[C@@H]2c3ccc(-n4c(-c5cccnc5N)nc5ccc(-n6cccn6)nc54)cc3CC2OC)CC1 (single isomer, unassigned) [Example 162, 1-(4-(((1R,2*)-5-(2-(2-aminopyridin-3-yl)-5-(1H-pyrazol-1-yl)-3H-imidazo[4,5-b]pyridin-3-yl)-2-methoxy-2,3-dihydro-1H-inden-1-yl)amino)piperidin-1-yl)prop-2-en-1-one]
- IC50 (AKT1 E17K): 0.645 µM
- IC50 (AKT2): 5.88 µM
- IC50 (AKT1 WT): 0.102 µM
- IC50 ([1]; Homo sapiens, LAPC4, 72 h): 1.6 µM

SMILES: C=CC(=O)N1CCC(N[C@@H]2c3ccc(-n4c(-c5cccnc5N)nc5ccc(-n6cccn6)nc54)cc3CC2OC)CC1 (single isomer, unassigned) [Example 163, 1-(4-(((1R,2*)-5-(2-(2-aminopyridin-3-yl)-5-(1H-pyrazol-1-yl)-3H-imidazo[4,5-b]pyridin-3-yl)-2-methoxy-2,3-dihydro-1H-inden-1-yl)amino)piperidin-1-yl)prop-2-en-1-one]
- IC50 (AKT1 E17K): 0.642 µM
- IC50 (AKT2): 1.91 µM
- IC50 (AKT1 WT): 0.0717 µM
- IC50 ([1]; 72 h): 0.879 µM

SMILES: C=CC(=O)N1CCC(N[C@H]2CCc3cc(-n4c(-c5cccnc5N)nc5ccc(-n6cccn6)nc54)ccc32)C[C@@H]1COC (single isomer, unassigned) [Example 164, 1-((2R,4*)-4-(((S)-5-(2-(2-aminopyridin-3-yl)-5-(1H-pyrazol-1-yl)-3H-imidazo[4,5-b]pyridin-3-yl)-2,3-dihydro-1H-inden-1-yl)amino)-2-(methoxymethyl)piperidin-1-yl)prop-2-en-1-one]
- IC50 (AKT1 E17K): 0.475 µM
- IC50 (AKT2): 4.1 µM
- IC50 (AKT1 WT): 0.058 µM
- IC50 ([1]; 72 h): 0.489 µM

SMILES: C=CC(=O)N1CCC(N[C@H]2CCc3cc(-n4c(-c5cccnc5N)nc5ccc(-n6cccn6)nc54)ccc32)C[C@@H]1COC (single isomer, unassigned) [Example 165, 1-((2R,4*)-4-(((S)-5-(2-(2-aminopyridin-3-yl)-5-(1H-pyrazol-1-yl)-3H-imidazo[4,5-b]pyridin-3-yl)-2,3-dihydro-1H-inden-1-yl)amino)-2-(methoxymethyl)piperidin-1-yl)prop-2-en-1-one]
- IC50 (AKT1 E17K): 0.143 µM
- IC50 (AKT2): 0.163 µM
- IC50 (AKT1 WT): 0.0393 µM
- IC50 ([1]; 72 h): 0.187 µM

SMILES: C=CC(=O)N1CCCC(c2cn([C@H]3CCc4cc(-n5c(-c6cccnc6N)nc6ccc(-n7cccn7)nc65)ccc43)nn2)C1 (single isomer, unassigned) [Example 168, 1-((*)-3-(1-((S)-5-(2-(2-aminopyridin-3-yl)-5-(1H-pyrazol-1-yl)-3H-imidazo[4,5-b]pyridin-3-yl)-2,3-dihydro-1H-inden-1-yl)-1H-1,2,3-triazol-4-yl)piperidin-1-yl)prop-2-en-1-one]
- IC50 (AKT1 E17K): 0.0326 µM
- IC50 (AKT2): 0.369 µM
- IC50 (AKT1 WT): 0.571 µM
- IC50 ([1]; 72 h): 0.858 µM

SMILES: C=CC(=O)N1CCC(N[C@H]2CCc3cc(-n4c(-c5cccnc5N)nc5ccc(C6CC6)nc54)ccc32)C(F)C1 (single isomer, unassigned) [Example 176, 1-((3*,4*)-4-(((S)-5-(2-(2-aminopyridin-3-yl)-5-cyclopropyl-3H-imidazo[4,5-b]pyridin-3-yl)-2,3-dihydro-1H-inden-1-yl)amino)-3-fluoropiperidin-1-yl)prop-2-en-1-one]
- IC50 (AKT1 E17K): 0.0378 µM
- IC50 (AKT2): 0.484 µM
- IC50 (AKT1 WT): 0.967 µM
- IC50 ([1]; Homo sapiens, LAPC4, 72 h): 0.433 µM

SMILES: C=CC(=O)N1CCC(N[C@H]2CCc3cc(-n4c(-c5cccnc5N)nc5ccc(C6CC6)nc54)ccc32)C(F)C1 (single isomer, unassigned) [Example 177, 1-((3*,4*)-4-(((S)-5-(2-(2-aminopyridin-3-yl)-5-cyclopropyl-3H-imidazo[4,5-b]pyridin-3-yl)-2,3-dihydro-1H-inden-1-yl)amino)-3-fluoropiperidin-1-yl)prop-2-en-1-one]
- IC50 (AKT1 E17K): 0.0369 µM
- IC50 (AKT2): 0.114 µM
- IC50 (AKT1 WT): 1.52 µM
- IC50 ([1]; 72 h): 0.416 µM

SMILES: C=CC(=O)N1CCN(N(C)C2CCc3cc(-n4c(-c5cccnc5N)nc5ccc(-n6cccn6)nc54)ccc32)CC1 (single isomer, unassigned) [Example 180, 1-(4-{[(1*)-5-[2-(2-aminopyridin-3-yl)-5-(pyrazol-1-yl)imidazo[4,5-b]pyridin-3-yl]-2,3-dihydro-1H-inden-1-yl](methyl)amino}piperazin-1-yl)prop-2-en-1-one]
- IC50 (AKT1 E17K): 0.0186 µM
- IC50 (AKT2): 0.16 µM
- IC50 (AKT1 WT): 0.244 µM
- IC50 ([1]; 72 h): 0.625 µM

SMILES: C=CC(=O)N1CCC(N[C@@H]2c3ccc(-n4c(-c5cccnc5N)nc5ccc(-n6cccn6)nc54)cc3CC2C)CC1 (single isomer, unassigned) [Example 181, 1-(4-{[(1S,2*)-5-[2-(2-aminopyridin-3-yl)-5-(pyrazol-1-yl)imidazo[4,5-b]pyridin-3-yl]-2-methyl-2,3-dihydro-1H-inden-1-yl]amino}piperidin-1-yl)prop-2-en-1-one]
- IC50 (AKT1 E17K): 0.0587 µM
- IC50 (AKT2): 0.513 µM
- IC50 (AKT1 WT): 1.14 µM
- IC50 ([1]; 72 h): 0.941 µM

SMILES: C=CC(=O)N1C[C@H]2CCC[C@@H](C1)C2N[C@H]1CCc2cc(-n3c(-c4cccnc4N)nc4ccc(-n5cccn5)nc43)ccc21 (single isomer, unassigned) [Example 189, 1-((1R,5S,9*)-9-(((S)-5-(2-(2-aminopyridin-3-yl)-5-(1H-pyrazol-1-yl)-3H-imidazo[4,5-b]pyridin-3-yl)-2,3-dihydro-1H-inden-1-yl)amino)-3-azabicyclo[3.3.1]nonan-3-yl)prop-2-en-1-one]
- IC50 (AKT1 E17K): 0.0609 µM
- IC50 (AKT2): 0.74 µM
- IC50 (AKT1 WT): 1.47 µM
- IC50 ([1]; 72 h): 1.37 µM

— patent US12570655B2, “Cysteine covalent modifiers of AKT1 and uses thereof” (Terremoto Biosciences, Inc., priority 2023, dated 2026)
